According to ChEMBL document CHEMBL1201862, “PubChem BioAssay data set” (2004):
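In this assay, cells in 96-well plates receive the compound at five concentrations for 48 hours. Endpoints are linearly interpolated between the surrounding concentrations. GI50: concentration for 50% inhibition of growth.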 The source made the active and inactive calls. Rule as the data show it: active = GI50 up to about 1.1 µM and inactive = higher.

What was measured:
Test in all cases: inhibition of tumour cell growth, NCI panel, 48 h
[1] = test system: 786-0
[2] = test system: A498
[3] = test system: ACHN
[4] = test system: CAKI-1
[5] = test system: DU-145
[6] = test system: EKVX
[7] = test system: HCC 2998
[8] = test system: IGROV-1
[9] = test system: KM12
[10] = test system: MCF7
[11] = test system: MDA-MB-231
[12] = test system: MDA-N
[13] = test system: MOLT-4
[14] = test system: NCI-H226
[15] = test system: NCI/ADR-RES
[16] = test system: OVCAR-8
[17] = test system: RXF 393
[18] = test system: SF-295
[19] = test system: U-251
[20] = test system: NCI-H522

`CC(=O)C(=[N+]=[N-])C(=O)OC(C)(C)C#N` was tested, and the GI50 [1] was > 10 µM (inactive), the GI50 [2] was > 10 µM (inactive) and the GI50 [3] was > 10 µM (inactive). The GI50 [4] was > 10 µM (inactive), the GI50 [5] was > 10 µM (inactive) and the GI50 [6] was > 10 µM (inactive). For the same compound, the GI50 [7] was > 10 µM (inactive), the GI50 [8] was > 10 µM (inactive) and the GI50 [9] was > 10 µM (inactive). For the same compound, the GI50 [10] was > 10 µM (inactive), the GI50 [11] was > 10 µM (inactive) and the GI50 [12] was > 10 µM (inactive). The GI50 [13] was > 10 µM (inactive), the GI50 [14] was > 10 µM (inactive) and the GI50 [15] was > 10 µM (inactive). For the same compound, the GI50 [16] was > 10 µM (inactive), the GI50 [17] was > 10 µM (inactive) and the GI50 [18] was > 10 µM (inactive). The GI50 [19] was > 10 µM (inactive).

`CCCCCc1c(Cl)nc(Cl)nc1Cl` was tested, and the GI50 [1] was 3.67 µM (inactive), the GI50 [2] was 20.1 µM (inactive) and the GI50 [3] was 21 µM (inactive). The GI50 [4] was 2.88 µM (inactive), the GI50 [5] was 21.7 µM (inactive) and the GI50 [6] was 22.5 µM (inactive). The GI50 [7] was 11.1 µM (inactive), the GI50 [8] was 7.05 µM (inactive) and the GI50 [9] was 13.9 µM (inactive). For the same compound, the GI50 [10] was 10.2 µM (inactive), the GI50 [11] was 5.69 µM (inactive) and the GI50 [12] was 4.95 µM (inactive). The GI50 [13] was 0.303 µM (active), the GI50 [14] was 2 µM (inactive) and the GI50 [20] was 0.625 µM (active). The GI50 [15] was 12.1 µM (inactive), the GI50 [16] was 10.4 µM (inactive) and the GI50 [17] was 8.41 µM (inactive). The GI50 [18] was 25.1 µM (inactive) and the GI50 [19] was 9.27 µM (inactive).

`COc1ccc2c3c1OC1c4[nH]c5ccccc5c4CC4(O)C(C2)N(C)CCC314` (stereo not given) was tested, and the GI50 [1] was 18.7 µM (inactive), the GI50 [2] was 15.3 µM (inactive) and the GI50 [3] was 20.6 µM (inactive). The GI50 [4] was 35.3 µM (inactive), the GI50 [5] was 57.9 µM (inactive) and the GI50 [6] was 51.9 µM (inactive). The GI50 [7] was 16.4 µM (inactive), the GI50 [8] was 64.1 µM (inactive) and the GI50 [9] was 30.3 µM (inactive). The GI50 [10] was 21.8 µM (inactive), the GI50 [11] was 25.5 µM (inactive) and the GI50 [12] was 17.3 µM (inactive). For the same compound, the GI50 [13] was 16.7 µM (inactive), the GI50 [20] was 25.1 µM (inactive) and the GI50 [15] was 63.4 µM (inactive). For the same compound, the GI50 [16] was 66.4 µM (inactive), the GI50 [17] was 20 µM (inactive) and the GI50 [18] was 82.4 µM (inactive). For the same compound, the GI50 [19] was 21 µM (inactive).

For `O=c1c2ccccc2nc(N/N=C/c2ccccc2O)n1-c1ccccc1`, the GI50 [1] was 1.53 µM (inactive), the GI50 [2] was > 100 µM (inactive) and the GI50 [3] was 3.62 µM (inactive). The GI50 [4] was 5.62 µM (inactive), the GI50 [5] was 5 µM (inactive) and the GI50 [7] was 5.27 µM (inactive). For the same compound, the GI50 [8] was 5.6 µM (inactive), the GI50 [10] was 3.33 µM (inactive) and the GI50 [11] was 4.59 µM (inactive). For the same compound, the GI50 [12] was 7.64 µM (inactive), the GI50 [14] was 5.41 µM (inactive) and the GI50 [20] was 4.84 µM (inactive). The GI50 [15] was 2.27 µM (inactive), the GI50 [16] was 1.99 µM (inactive) and the GI50 [17] was 17.1 µM (inactive). The GI50 [18] was 6.4 µM (inactive) and the GI50 [19] was 5.2 µM (inactive).

`COC(=O)[C@H](Cc1ccccc1)NC(=O)c1ccc(CNC(=O)/C=C/c2ccc(-c3ccccc3)cc2)cc1` was tested, and the GI50 [1] was 3.56 µM (inactive), the GI50 [2] was > 100 µM (inactive) and the GI50 [3] was > 100 µM (inactive). The GI50 [4] was 65 µM (inactive), the GI50 [5] was > 100 µM (inactive) and the GI50 [6] was > 100 µM (inactive). The GI50 [7] was 11.5 µM (inactive), the GI50 [8] was > 100 µM (inactive) and the GI50 [9] was > 100 µM (inactive). For the same compound, the GI50 [10] was > 100 µM (inactive), the GI50 [11] was 22.1 µM (inactive) and the GI50 [12] was > 100 µM (inactive). The GI50 [13] was > 100 µM (inactive), the GI50 [14] was > 100 µM (inactive) and the GI50 [15] was 59.8 µM (inactive). The GI50 [16] was 7.1 µM (inactive), the GI50 [17] was 11.1 µM (inactive) and the GI50 [18] was 19.7 µM (inactive). The GI50 [19] was 5.97 µM (inactive).

In the case of `Cc1ccc(NC2=CC(=O)C(NO)c3ccccc32)cc1` (stereo not given), the GI50 [1] is reported as 5.16 µM (inactive), the GI50 [2] is reported as 16.3 µM (inactive) and the GI50 [3] is reported as 2.84 µM (inactive). The GI50 [4] was 2.5 µM (inactive), the GI50 [5] was 2.56 µM (inactive) and the GI50 [6] was 2.15 µM (inactive). The GI50 [7] was 7.26 µM (inactive), the GI50 [8] was 1.53 µM (inactive) and the GI50 [9] was 3.32 µM (inactive). For the same compound, the GI50 [10] was 2.66 µM (inactive), the GI50 [11] was 2.21 µM (inactive) and the GI50 [12] was 2.61 µM (inactive). The GI50 [13] was 2.74 µM (inactive), the GI50 [14] was 19.9 µM (inactive) and the GI50 [15] was 2.08 µM (inactive). For the same compound, the GI50 [16] was 1.63 µM (inactive), the GI50 [17] was 2.62 µM (inactive) and the GI50 [18] was 3.98 µM (inactive). For the same compound, the GI50 [19] was 3.15 µM (inactive).

For `O=S(=O)(O)c1cc(Nc2ccnc3ccccc23)c2c(S(=O)(=O)O)cc(S(=O)(=O)O)cc2c1`, the GI50 [1] was > 100 µM (inactive), the GI50 [2] was > 100 µM (inactive) and the GI50 [4] was > 100 µM (inactive). For the same compound, the GI50 [5] was > 100 µM (inactive), the GI50 [6] was > 100 µM (inactive) and the GI50 [7] was > 100 µM (inactive). For the same compound, the GI50 [8] was > 100 µM (inactive), the GI50 [9] was > 100 µM (inactive) and the GI50 [10] was > 100 µM (inactive). For the same compound, the GI50 [11] was > 100 µM (inactive), the GI50 [12] was > 100 µM (inactive) and the GI50 [13] was > 100 µM (inactive). For the same compound, the GI50 [14] was > 100 µM (inactive), the GI50 [20] was > 100 µM (inactive) and the GI50 [15] was > 100 µM (inactive). The GI50 [16] was > 100 µM (inactive), the GI50 [17] was > 100 µM (inactive) and the GI50 [19] was > 100 µM (inactive).

For `COc1ccc(/N=c2/[nH]c(N)c(C(=O)c3ccc(OC)cc3)s2)cc1`, the GI50 [1] was 0.441 µM (active), the GI50 [2] was 0.46 µM (active) and the GI50 [4] was 0.313 µM (active). The GI50 [5] was 0.378 µM (active), the GI50 [6] was 17.3 µM (inactive) and the GI50 [7] was 0.755 µM (active). The GI50 [8] was 0.471 µM (active), the GI50 [9] was 0.378 µM (active) and the GI50 [10] was 3.23 µM (inactive). The GI50 [11] was 1 µM (active), the GI50 [12] was 0.0301 µM (active) and the GI50 [13] was 0.0851 µM (active). The GI50 [14] was 17.7 µM (inactive), the GI50 [20] was 0.127 µM (active) and the GI50 [15] was 0.211 µM (active). The GI50 [16] was 0.537 µM (active), the GI50 [17] was 0.324 µM (active) and the GI50 [18] was 0.159 µM (active). For the same compound, the GI50 [19] was 0.31 µM (active).
